Counter-ions that a name gives are not always drawn. The source made the active and inactive calls.
Assays:
[1] = cytotoxicity toward NIH3T3 fibroblasts, dose response, counter-screen, cell-based, ATP luminescence, mouse fibroblasts (AID 2010); type: functional;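 also: cells exposed to compound for about 90 hours before reading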
[2] = inhibitors of intracellular T. cruzi replication, confirmation, NIH3T3 host cells, beta-gal luminescence (AID 2044); type: functional, cell-based;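 also: intracellular parasites grown in NIH/3T3 mouse fibroblasts as host cells; luminescent beta-galactosidase reporter signal from transgenic T. cruzi replicating inside host cells; inhibitors lower the luminescence signal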
[3] = target: T1, Methionyl-tRNA synthetase, putative (Trypanosoma brucei brucei, UniProt Q38C91); type: functional, Trypanosoma brucei brucei strain 927/4 GUTat10.1
T1 sequence (Q38C91 whole entry): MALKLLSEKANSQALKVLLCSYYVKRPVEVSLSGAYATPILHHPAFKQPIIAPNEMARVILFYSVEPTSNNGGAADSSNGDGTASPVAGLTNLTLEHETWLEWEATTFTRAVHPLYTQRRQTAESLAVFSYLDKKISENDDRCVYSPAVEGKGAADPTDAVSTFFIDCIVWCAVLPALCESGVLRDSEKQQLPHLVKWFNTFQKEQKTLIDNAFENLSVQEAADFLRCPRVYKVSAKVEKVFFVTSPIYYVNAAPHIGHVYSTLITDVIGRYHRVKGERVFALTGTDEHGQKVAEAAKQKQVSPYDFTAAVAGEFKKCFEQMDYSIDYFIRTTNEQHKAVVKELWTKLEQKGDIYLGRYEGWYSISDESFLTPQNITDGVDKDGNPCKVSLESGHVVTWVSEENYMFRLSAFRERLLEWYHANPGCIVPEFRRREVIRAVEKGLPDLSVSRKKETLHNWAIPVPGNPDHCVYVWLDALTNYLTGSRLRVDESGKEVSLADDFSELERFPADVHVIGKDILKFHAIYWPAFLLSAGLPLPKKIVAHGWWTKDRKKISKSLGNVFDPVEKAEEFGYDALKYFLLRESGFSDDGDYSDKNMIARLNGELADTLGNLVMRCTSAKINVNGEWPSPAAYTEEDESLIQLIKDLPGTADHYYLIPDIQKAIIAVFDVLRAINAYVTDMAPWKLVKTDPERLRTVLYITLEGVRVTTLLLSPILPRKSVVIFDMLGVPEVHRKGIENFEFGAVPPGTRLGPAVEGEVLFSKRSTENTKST

cells [4] = experiment: cells
[5] = target: T1, Methionyl-tRNA synthetase, putative; type: functional, Trypanosoma brucei brucei strain 927/4 GUTat10.1; remark: listed apart in the source
[6] = Counterscreen for inhibitors of Trypanosoma brucei methionyl tRNA synthetase (MetRS): Luminescence-based cell-based high throughput dose response assay to identify compounds that are cytotoxic to Jurkat human T lymphocyte cells.; type: functional
[7] = target: Potassium channel subfamily K member 3 (Homo sapiens, UniProt O14649); experiment: TASK1 (KCNK3) potassium channel inhibitors, SAR follow-up, CHO cells, FluxOR thallium flux (AID 652212); type: functional
Chain of Potassium channel subfamily K member 3 (O14649 whole entry): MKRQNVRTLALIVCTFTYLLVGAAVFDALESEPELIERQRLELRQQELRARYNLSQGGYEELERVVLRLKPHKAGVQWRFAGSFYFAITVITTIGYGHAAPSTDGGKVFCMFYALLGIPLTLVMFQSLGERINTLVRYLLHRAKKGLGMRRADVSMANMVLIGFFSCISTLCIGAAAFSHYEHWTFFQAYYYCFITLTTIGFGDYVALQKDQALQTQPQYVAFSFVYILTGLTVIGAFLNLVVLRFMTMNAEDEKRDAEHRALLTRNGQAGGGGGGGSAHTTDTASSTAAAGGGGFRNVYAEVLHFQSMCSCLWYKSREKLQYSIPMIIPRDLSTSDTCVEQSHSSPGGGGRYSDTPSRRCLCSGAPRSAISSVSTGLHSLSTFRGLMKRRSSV

[8] = target: T2, Trace amine-associated receptor 1 (Homo sapiens, UniProt Q96RJ0); experiment: Fluorescence-based cell-based high throughput dose response assay to identify agonists of the human trace amine associated receptor 1 (TAAR1).; type: functional
T2 sequence (Q96RJ0 whole entry): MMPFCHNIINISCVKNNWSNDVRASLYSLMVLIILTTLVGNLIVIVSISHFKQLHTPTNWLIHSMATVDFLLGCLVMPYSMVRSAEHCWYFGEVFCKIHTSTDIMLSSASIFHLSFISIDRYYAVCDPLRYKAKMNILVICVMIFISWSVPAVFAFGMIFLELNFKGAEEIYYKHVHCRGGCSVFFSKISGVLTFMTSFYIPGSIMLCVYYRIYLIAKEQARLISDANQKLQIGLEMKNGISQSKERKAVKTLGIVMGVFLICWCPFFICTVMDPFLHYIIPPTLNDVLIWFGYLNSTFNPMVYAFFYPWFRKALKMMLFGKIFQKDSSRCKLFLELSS

[9] = target: T2, Trace amine-associated receptor 1; experiment: Counterscreen for agonists of the human trace amine associated receptor 1 (hTAAR1): Fluorescence-based cell-based high throughput dose response assay to identify hTAAR1 agonist that also desensitize TAAR1 receptor response.; type: functional
cells [10] = type: functional, cell-based
cells [11] = type: functional, cell-based; remark: listed apart in the source
[12] = target: T3, Small ubiquitin-related modifier 1 (Homo sapiens, UniProt P63165); experiment: inhibitors of SUMO1 partner interactions, dose response, biochemical, FRET (AID 624383); type: functional; conditions: read-out: IC50_Mean
T3 sequence (P63165 whole entry): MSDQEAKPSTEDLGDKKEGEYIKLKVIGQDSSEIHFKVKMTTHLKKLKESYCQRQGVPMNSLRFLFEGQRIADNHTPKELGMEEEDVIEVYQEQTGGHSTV

Genome polyprotein = Genome polyprotein (dengue virus type 2, UniProt P29990); experiment: Dengue-2 NS5 methyltransferase inhibitors, primary screen, biochemical, confirmation dose response (AID 588689); type: functional
Chain of Genome polyprotein (P29990 2492-3391 limits assumed): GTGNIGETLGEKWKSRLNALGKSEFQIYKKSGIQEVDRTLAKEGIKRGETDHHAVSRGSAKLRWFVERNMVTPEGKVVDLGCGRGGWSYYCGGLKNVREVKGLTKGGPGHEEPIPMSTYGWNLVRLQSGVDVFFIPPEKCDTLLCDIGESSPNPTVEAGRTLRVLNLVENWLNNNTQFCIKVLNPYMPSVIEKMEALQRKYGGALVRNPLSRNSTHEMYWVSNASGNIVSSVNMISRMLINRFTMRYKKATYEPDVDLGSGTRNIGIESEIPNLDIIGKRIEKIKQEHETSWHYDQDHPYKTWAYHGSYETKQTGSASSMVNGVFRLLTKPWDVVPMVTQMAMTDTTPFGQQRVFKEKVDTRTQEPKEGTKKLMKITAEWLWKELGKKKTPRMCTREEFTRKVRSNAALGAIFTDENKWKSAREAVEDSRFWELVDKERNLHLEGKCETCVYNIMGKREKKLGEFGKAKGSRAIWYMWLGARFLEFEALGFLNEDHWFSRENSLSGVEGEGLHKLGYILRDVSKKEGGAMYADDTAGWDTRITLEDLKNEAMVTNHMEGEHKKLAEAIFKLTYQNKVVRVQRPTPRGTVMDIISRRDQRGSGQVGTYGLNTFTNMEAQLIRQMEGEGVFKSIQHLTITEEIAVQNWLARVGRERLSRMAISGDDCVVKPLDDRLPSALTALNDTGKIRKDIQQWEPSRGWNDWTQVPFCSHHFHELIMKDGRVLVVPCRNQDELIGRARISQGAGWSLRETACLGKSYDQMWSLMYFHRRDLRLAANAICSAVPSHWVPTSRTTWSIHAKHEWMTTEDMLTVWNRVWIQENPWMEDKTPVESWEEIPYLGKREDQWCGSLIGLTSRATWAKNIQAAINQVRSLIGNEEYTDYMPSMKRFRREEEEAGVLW

[13] = target: T3, Small ubiquitin-related modifier 1; experiment: inhibitors of SUMO1 peptide binding, dose response, biochemical, fluorescence polarization, uHTS hits (AID 624382); type: functional; conditions: read-out: IC50_Mean
[14] = target: T4, Rac GTPase-activating protein 1 (Homo sapiens, UniProt Q9H0H5); experiment: MgcRacGAP GTPase-activating activity inhibitors, confirmation, biochemical, ADP Hunter fluorescence, primary and confirmatory (AID 624330); type: functional
T4 sequence (Q9H0H5 whole entry): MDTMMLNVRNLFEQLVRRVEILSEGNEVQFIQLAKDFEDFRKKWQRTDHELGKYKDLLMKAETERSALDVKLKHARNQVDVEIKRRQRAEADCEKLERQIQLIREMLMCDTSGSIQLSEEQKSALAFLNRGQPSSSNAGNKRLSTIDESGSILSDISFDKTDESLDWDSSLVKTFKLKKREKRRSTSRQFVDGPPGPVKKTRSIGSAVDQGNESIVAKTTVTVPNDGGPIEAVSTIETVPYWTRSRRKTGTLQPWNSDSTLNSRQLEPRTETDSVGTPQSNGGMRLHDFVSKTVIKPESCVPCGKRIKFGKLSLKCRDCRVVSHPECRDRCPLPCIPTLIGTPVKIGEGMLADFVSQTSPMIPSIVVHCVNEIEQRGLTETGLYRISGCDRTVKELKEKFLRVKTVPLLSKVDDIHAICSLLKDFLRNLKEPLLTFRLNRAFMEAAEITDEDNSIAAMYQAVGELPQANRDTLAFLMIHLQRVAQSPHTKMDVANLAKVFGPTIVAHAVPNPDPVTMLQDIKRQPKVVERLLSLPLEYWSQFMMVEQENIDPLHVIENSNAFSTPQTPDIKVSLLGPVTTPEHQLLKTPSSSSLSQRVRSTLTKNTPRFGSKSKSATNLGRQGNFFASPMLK

Streptococcus = experiment: Group A Streptococcus viability loss, dose response, counter-screen for streptokinase expression inhibitor project, luminescence, BacTiterGlo (AID 1915); type: functional, organism-based;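 also: potency for reduction of bacterial viability or growth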
INS1 = experiment: beta cell apoptosis inhibitors, cytokine rescue, dose response, luminescence, retest (AID 449756); type: functional, cell-based; conditions: Rattus norvegicus;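 also: cell death triggered by IL-1 beta plus TNF-alpha plus IFN-gamma mixture; protective hits raise ATP signal compared with cytokine alone wells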
[15] = inhibitors of HIV Env-driven cell fusion, dose response, cherry-pick (AID 652057); type: functional, cell-based
[16] = off-target signal loss in HeLa-CEM21 co-culture – HeLa F-luc CTL cells, cherry-picked, counter-screen for HIV-1 Env fusion inhibitor project, dose response (AID 652040); type: functional, cell-based;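 also: potency for signal decrease marking cytotoxic or nonspecific inhibition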
[17] = inhibitors of clade B AD8 Env fusion, dose response, cell-based, cherry-pick (AID 652062); type: functional;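 also: luciferase signal from cell-cell fusion driven by HIV-1 clade B AD8 Env; potency is for inhibitors of fusion seen as a drop in luminescence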
[18] = CEM21 lymphoblast cell cytotoxicity, dose response, cytotoxicity control for viral fusion inhibitor project, CellTiter-Glo luminescence, cherry-picked (AID 652042); type: functional, cell-based;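 also: potency for signal decrease meaning cytotoxicity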
[19] = test system: Streptococcus sp. 'group A'; experiment: growth inhibition of control SK(-) GAS strain, dose response, counter-screen for streptokinase expression inhibitor project, luminescence, kanamycin, BacTiterGlo, confirmation (AID 1900); type: functional, organism-based
[20] = ZM109 Env clade C HIV-1 fusion inhibitors, dose response, HeLa effector, CEM target cells, luciferase, cherry-pick (AID 652058); type: functional, cell-based
HEK293 = experiment: inhibitors of LMP1-driven NF-kB reporter, dose response, cell-based, HEK293, luciferase, cherry-pick (AID 588343); type: functional; conditions: Homo sapiens
[21] = target: Disintegrin and metalloproteinase domain-containing protein 17 (Homo sapiens, UniProt P78536); experiment: exosite inhibitors of ADAM17, dose response, biochemical (AID 743260)
Chain of Disintegrin and metalloproteinase domain-containing protein 17 (P78536 whole entry, the tested form may be a part): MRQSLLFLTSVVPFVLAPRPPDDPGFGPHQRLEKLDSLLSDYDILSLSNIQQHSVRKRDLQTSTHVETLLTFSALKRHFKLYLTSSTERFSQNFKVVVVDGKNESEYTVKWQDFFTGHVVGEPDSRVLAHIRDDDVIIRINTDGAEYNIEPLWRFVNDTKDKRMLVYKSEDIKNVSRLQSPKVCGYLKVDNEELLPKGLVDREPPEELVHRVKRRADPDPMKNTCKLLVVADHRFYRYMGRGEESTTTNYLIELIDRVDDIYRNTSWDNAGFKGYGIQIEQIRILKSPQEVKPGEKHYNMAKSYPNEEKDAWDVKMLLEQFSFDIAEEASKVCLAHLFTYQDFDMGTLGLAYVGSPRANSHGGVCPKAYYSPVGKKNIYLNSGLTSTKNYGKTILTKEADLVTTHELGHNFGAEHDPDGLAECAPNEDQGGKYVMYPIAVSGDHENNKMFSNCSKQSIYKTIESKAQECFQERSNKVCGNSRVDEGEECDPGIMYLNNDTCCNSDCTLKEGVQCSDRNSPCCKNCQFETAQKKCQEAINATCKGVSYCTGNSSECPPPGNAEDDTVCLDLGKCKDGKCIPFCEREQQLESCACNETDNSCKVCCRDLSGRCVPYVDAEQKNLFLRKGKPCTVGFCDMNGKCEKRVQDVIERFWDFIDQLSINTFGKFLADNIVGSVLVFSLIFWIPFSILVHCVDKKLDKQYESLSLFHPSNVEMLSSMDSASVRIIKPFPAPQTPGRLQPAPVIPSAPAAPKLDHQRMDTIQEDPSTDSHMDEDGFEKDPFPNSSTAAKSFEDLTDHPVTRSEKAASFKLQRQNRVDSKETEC

[22] = ADAM10 protease inhibitors, dose response, selectivity assay for ADAM17 exosite inhibitor project, biochemical, FRET peptide substrate, recombinant human ADAM10 (AID 743259);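 also: ADAM10 enzyme cleaving a FRET peptide substrate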
[23] = target: Arf-GAP with SH3 domain, ANK repeat and PH domain-containing protein 1 (Homo sapiens, UniProt Q9ULH1); type: functional;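 also: biochemical fluorescence polarization dose–response screen measuring inhibition of ASAP1; ASAP1 GAP domain stimulating GTP hydrolysis by truncated human ARF1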
Chain of Arf-GAP with SH3 domain, ANK repeat and PH domain-containing protein 1 (Q9ULH1 whole entry, the tested form may be a part): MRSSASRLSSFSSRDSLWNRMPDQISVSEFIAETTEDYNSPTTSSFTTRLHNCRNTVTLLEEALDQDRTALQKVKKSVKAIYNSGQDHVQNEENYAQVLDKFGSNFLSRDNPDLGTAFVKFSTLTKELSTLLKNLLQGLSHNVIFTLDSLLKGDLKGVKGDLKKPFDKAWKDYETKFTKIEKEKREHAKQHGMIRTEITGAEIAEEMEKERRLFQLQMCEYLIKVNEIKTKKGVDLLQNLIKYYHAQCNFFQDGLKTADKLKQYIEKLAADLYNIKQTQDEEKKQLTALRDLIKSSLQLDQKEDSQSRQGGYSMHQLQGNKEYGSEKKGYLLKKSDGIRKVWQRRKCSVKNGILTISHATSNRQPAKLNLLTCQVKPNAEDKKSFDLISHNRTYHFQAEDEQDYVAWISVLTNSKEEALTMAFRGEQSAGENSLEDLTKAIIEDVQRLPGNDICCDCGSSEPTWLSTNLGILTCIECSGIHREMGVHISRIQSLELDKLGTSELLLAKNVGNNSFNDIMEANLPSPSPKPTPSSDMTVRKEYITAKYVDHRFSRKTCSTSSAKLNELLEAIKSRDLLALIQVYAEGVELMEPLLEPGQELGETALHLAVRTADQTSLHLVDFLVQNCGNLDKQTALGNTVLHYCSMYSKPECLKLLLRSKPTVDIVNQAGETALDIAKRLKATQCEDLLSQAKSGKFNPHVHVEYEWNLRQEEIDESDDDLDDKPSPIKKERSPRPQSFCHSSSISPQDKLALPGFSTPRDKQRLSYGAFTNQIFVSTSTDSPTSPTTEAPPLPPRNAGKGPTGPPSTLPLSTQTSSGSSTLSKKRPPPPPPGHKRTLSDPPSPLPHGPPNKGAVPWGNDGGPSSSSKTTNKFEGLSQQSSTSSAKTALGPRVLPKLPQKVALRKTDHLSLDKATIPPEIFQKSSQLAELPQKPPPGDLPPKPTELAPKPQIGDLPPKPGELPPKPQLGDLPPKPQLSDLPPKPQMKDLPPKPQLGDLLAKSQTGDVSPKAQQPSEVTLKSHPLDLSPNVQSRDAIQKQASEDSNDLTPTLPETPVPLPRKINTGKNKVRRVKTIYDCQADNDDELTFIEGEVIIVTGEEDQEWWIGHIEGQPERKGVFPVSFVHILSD

[24] = ADAM10 inhibitors, peptide cleavage, dose response, biochemical, QFRET (AID 743254);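 also: ADAM10 enzyme with the DM2 quenched FRET peptide as substrate; EDANS fluorescence gain as the protease cuts the substrate; inhibitor potency against ADAM10 proteolytic activity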
Vero = experiment: Vero cell toxicity, dose response, cytotoxicity control, plate reader, cherry-pick samples (AID 687020); type: functional, cell-based; conditions: Chlorocebus sabaeus
[25] = target: Potassium channel subfamily K member 9 (Homo sapiens, UniProt Q9NPC2); experiment: TASK3 (KCNK9) channel inhibitors, thallium flux, SAR follow-up, selectivity assay for TASK1 inhibitor project, cell-based, FluxOR thallium flux, concentration-response (AID 652211); type: functional;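 also: potency is for inhibitors of the channel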
Chain of Potassium channel subfamily K member 9 (Q9NPC2 whole entry): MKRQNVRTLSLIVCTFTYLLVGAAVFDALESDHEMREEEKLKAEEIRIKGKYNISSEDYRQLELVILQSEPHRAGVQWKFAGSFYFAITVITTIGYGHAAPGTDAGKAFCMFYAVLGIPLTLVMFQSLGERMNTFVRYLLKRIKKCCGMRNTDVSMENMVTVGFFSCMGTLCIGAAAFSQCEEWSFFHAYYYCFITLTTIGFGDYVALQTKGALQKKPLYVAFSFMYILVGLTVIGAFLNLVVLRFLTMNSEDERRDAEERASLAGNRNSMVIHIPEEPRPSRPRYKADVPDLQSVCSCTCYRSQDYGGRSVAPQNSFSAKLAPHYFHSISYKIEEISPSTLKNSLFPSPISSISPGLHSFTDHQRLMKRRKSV

[26] = target: T5, Beta-2 adrenergic receptor (Homo sapiens, UniProt P07550); experiment: Dose response for HTS for Beta-2AR agonists via FAP method from Powderset3.; type: functional
T5 sequence (P07550 whole entry): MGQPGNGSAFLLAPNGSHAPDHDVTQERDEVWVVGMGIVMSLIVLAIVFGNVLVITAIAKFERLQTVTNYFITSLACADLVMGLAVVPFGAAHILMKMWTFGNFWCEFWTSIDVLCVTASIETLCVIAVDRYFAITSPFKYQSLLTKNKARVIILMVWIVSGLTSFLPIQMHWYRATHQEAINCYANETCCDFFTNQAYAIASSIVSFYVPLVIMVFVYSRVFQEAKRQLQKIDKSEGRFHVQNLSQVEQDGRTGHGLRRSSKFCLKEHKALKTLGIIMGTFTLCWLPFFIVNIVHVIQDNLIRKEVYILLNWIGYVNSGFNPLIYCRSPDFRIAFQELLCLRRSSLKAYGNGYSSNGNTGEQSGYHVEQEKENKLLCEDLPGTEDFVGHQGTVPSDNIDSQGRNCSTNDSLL

[27] = HEp-2 cell cytotoxicity, dose response, cytotoxicity control for RSV inhibitor project, HTS (AID 2410); type: functional; conditions: human respiratory syncytial virus
[28] = P. falciparum late gametocyte killing, dose response, luminescence (AID 1117278); type: functional, cell-based;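 also: gametocytes exposed to compound for 24 hours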
[29] = target: T5, Beta-2 adrenergic receptor; experiment: beta2AR agonists driving receptor internalization, dose response, cell-based, FAP fluorogen, flow cytometry, cherry pick 1 (AID 588763); type: functional
[30] = Jurkat T cell cytotoxicity, dose response, cytotoxicity control for P. falciparum gametocyte viability project, luminescence (AID 1117277); type: functional, cell-based;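 also: potency reflects loss of cellular ATP meaning fewer viable cells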
Streptokinase A = target: T6, Streptokinase A (Streptococcus pyogenes serotype M1, UniProt P10520); experiment: S. pyogenes streptokinase expression inhibitors, potency, dose response, plasminogen activation absorbance, OD405 (AID 1914); type: functional, Streptococcus pyogenes M1 GAS;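 also: secreted streptokinase activity via plasminogen activation per viability signal from cell pellet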
T6 sequence (P10520 whole entry): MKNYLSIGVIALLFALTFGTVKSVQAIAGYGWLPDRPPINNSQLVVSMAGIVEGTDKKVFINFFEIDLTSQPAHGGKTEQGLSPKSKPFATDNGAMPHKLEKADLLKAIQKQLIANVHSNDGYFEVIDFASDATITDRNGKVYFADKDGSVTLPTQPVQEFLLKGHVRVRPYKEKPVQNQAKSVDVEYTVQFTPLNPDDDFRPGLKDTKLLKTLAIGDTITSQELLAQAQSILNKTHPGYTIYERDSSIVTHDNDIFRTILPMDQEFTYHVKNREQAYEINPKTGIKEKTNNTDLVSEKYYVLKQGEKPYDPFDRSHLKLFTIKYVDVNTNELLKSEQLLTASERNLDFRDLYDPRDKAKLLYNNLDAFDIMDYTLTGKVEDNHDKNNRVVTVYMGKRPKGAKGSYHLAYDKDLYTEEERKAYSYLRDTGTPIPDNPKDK

## OC(COc1ccc2cc(Br)ccc2c1)Cn1ccnc1 (stereo not given)
[1]
  EC50: > 60 µM (not active)
[2]
  EC50: < 0.1 µM (active)
[3]
  IC50: 94.1 µM (inactive)
Cells [4]
  EC50: 0.126 µM (active)
[5]
  IC50: 28.2 µM (inactive)
[6]
  IC50: 83.3 µM (inactive)

## O=C(Nc1cccc(NC(=O)c2ccccc2)c1)c1ccccc1
[7]
  IC50: 0.024 µM (active)

## c1ccc(CC2=NCCN2)cc1 [TOLAZOLINE HYDROCHLORIDE]
[8]
  EC50: 1.01 µM (active)
[9]
  IC50: 4.74 µM (active)
Cells [10]
  IC50: > 29.9 µM (inactive)
Cells [11]
  EC50: > 29.9 µM (inactive)

## COc1ccccc1Nc1ccc2c(O)cc(S(=O)(=O)O)cc2c1
[12]
  IC50: 3.41 µM (active)
Genome polyprotein
  IC50: 60.5 µM (active)
[13]
  IC50: > 66.6 µM (inactive)
[14]
  IC50: 90.4 µM (active)

## CCCCCCn1c(=O)c(C(=O)Nc2ncccc2C)c(O)c2ccccc21
Streptococcus
  EC50: 1.98 µM (active)
INS1
  AC50: 7.92 µM (active)
[15]
  AC50: 5.24 µM (active)
[16]
  AC50: 5.77 µM (active)
[17]
  AC50: 4.02 µM (active)
[18]
  AC50: 28.6 µM (active)
[19]
  EC50: 0.566 µM (active)
[20]
  AC50: 3.78 µM (active)

## O=C1CCCCC1Sc1nnc(-c2ccc3c(c2)OCO3)o1 (stereo not given)
[15]
  AC50: 2.73 µM (active)
[16]
  AC50: 12.3 µM (active)
[17]
  AC50: 6.84 µM (active)
HEK293
  AC50: 0.841 µM (active)
[20]
  AC50: 41.9 µM (active)

## O=C(Cc1nnc(NC(=O)Nc2ccccc2)s1)NCc1ccccc1
[8]
  EC50: > 29.9 µM (inactive)
[9]
  IC50: > 29.9 µM (inactive)
Cells [10]
  IC50: > 29.9 µM (inactive)
Cells [11]
  EC50: > 29.9 µM (inactive)

## O=C(Nc1cccc(Cl)c1)OCCOCCOC(=O)Nc1cccc(Cl)c1
[21]
  IC50: > 69.4 µM (inactive)
[22]
  IC50: 12.9 µM (inactive)

## C[C@H](NC(=O)c1nc[nH]c1C(=O)NC(c1ccccc1)c1ccccc1)C(=O)OCc1ccccc1
[21]
  IC50: > 69.5 µM (inactive)

## COC(=O)c1cccc(Nc2nc(-c3ccncc3)nc3ccccc23)c1
[12]
  IC50: 4.11 µM (active)
[23]
  IC50: 10.5 µM (inactive)
[13]
  IC50: > 66.6 µM (inactive)

## CNC(=O)[C@@H](NC(=O)[C@H](CC(C)C)[C@H](O)C(=O)NO)C(C)(C)C
[22]
  IC50: 0.0358 µM (active)
[24]
  IC50: 0.0607 µM (active)

## O=C(c1cccc(Cl)c1)N1CCC2(CC1)NCCc1[nH]cnc12
Vero
  AC50: 34 µM (active)

## Cc1cccc(C(=O)Nc2cccc(NC(=O)c3ccccc3C(F)(F)F)c2)c1
[25]
  IC50: 12.9 µM (active)

## CC(Oc1ccc(Cl)cc1Cl)c1nc(-c2ccc(NC(=O)c3ccco3)cc2)no1 (stereo not given)
[26]
  EC50: 0.204 µM (active)
Streptococcus
  EC50: 25.7 µM (active)
[27]
  CC50: 20.2 µM (active)
[19]
  EC50: 21.7 µM (active)
[28]
  IC50: > 109 µM (inactive)
[29]
  EC50: 7.06 µM (active)
[30]
  IC50: > 83.3 µM (inactive)
Streptokinase A
  EC50: > 150 µM (not active)
